Experimental data published in paper PMC10318897, “The structure of Leptospira interrogans GAPDH sheds light into an immunoevasion factor that can target the anaphylatoxin C5a of innate immunity” (Frontiers in Immunology, 2023).

What was measured:
[1] = molecular target: T1, LiGAPDH (Leptospira interrogans, UniProt Q72QM3); experiment: NADH formation at […] nm, initial rates, nonlinear fit; format: biochemical
T1 construct: gene gapA; full-length, N-terminal His6 tag and TEV site (pETM-11), expressed in E. coli Rosetta(DE3); homotetramer; 36648 Da subunit
T1 sequence (Q72QM3 entry or part of it): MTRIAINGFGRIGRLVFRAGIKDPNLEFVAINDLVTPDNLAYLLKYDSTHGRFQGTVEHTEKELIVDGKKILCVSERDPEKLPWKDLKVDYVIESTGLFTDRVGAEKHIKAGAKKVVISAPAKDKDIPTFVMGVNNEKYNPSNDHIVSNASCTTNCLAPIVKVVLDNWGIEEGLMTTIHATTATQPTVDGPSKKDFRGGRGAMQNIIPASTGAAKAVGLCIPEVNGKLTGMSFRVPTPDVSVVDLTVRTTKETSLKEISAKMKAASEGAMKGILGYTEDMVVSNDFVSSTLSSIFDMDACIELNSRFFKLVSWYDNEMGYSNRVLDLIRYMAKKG

[2] = molecular target: T1, LiGAPDH; experiment: X-ray crystal structure, […] Å; format: binding; conditions: active site, N-terminal Rossmann domain, all eight subunits
[3] = molecular target: T1, LiGAPDH; experiment: NADH formation at […] nm, nonlinear fit; format: biochemical; conditions: substrate inhibition constant, 2 mM NAD+, 40 mM Tris-HCl pH 8.5, 2 mM EDTA, 25 °C

Work on `CCCCCCCCCCCCCCCc1cccc(O)c1C(=O)O` [anacardic acid] yielded a Ki [1] of 41 ± 2 µM.

`COc1cc(/C=C/C(=O)CC(=O)/C=C/c2ccc(O)c(OC)c2)ccc1O` [curcumin] gave a Ki [1] of 59 ± 3 µM.

For `NC(=O)c1ccc[n+]([C@@H]2O[C@H](COP(=O)(O)OP(=O)(O)OC[C@H]3O[C@@H](n4cnc5c(N)ncnc54)[C@H](O)[C@@H]3O)[C@@H](O)[C@H]2O)c1` [NAD^+], the “X-ray crystal structure, 2.37 Å” value [2] was “The crystal structure corresponds to the holoenzyme with an NAD^+ molecule tightly bound into the active”.

For `O=C[C@H](O)COP(=O)(O)O` [G3P], the “KSS” value ([3]; 5 mM phosphate) was 2.0 ± 0.3 mM.

For `O=P(O)(O)O` [Pi], the “KSS” value ([3]; 2 mM G3P) was 10 ± 1 mM.
